Experimental data: PubChem BioAssay AID720587 (Broad Institute, 2013)
Active and inactive are the calls of the source.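 Rule for the calls: active = fitted curve reaches -35% activity change at a concentration below twice the top valid dose tested; inactive = the rest, including effects opposite to the expected direction.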

Assay: EWS/Fli1-dependent A673 cell killing, confirmation, CellTiter-Glo luminescence, cherry-pick retest (AID 720587)
Conditions: A673 Ewing sarcoma viability, CellTiter-Glo ATP luminescence, 72 h; at 8 µM (top of the series)

SMILES | activity change, negative = cytotoxicity
COc1ccc(NS(=O)(=O)c2cc(NC(=O)CNC(=O)c3cccc(OC)c3)ccc2C)cc1 | 12.2% (inactive)

Same assay, conditions: A673 Ewing sarcoma viability, CellTiter-Glo ATP luminescence, 72 h; at 26 µM (top of the series)

SMILES | activity change, negative = cytotoxicity
Cc1cc(-c2nc3ccccc3s2)ccc1N | -21.8% (inactive)
O=C(CNC(c1ccccc1)c1ccccc1)Nc1ccccc1-c1ccccc1 | -1.93% (inactive)
CN(C)C(=O)c1ccc(-c2ccccc2[C@@H]2[C@@H](CO)N(C(=O)C3CC3)[C@H]2C#N)cc1 | 0.679% (inactive)
C=CC[n+]1c(-c2ccc(C)cc2)csc1Nc1ccc(NC(C)=O)cc1 | -9.93% (inactive)
Cc1ccc(-c2ccc3c(c2)O[C@@H](CN(C)C(=O)Nc2ccc(F)cc2)[C@H](C)CN([C@@H](C)CO)S3(=O)=O)cc1 | 0.801% (inactive)
OCCN1CCN(C(=S)c2ccc(-c3ccccc3)cc2)CC1 | 6.18% (inactive)
COc1ccc2oc(-c3ccccc3)cc(=O)c2c1 | -12.3% (inactive)
C[C@H](CO)N1C[C@H](C)[C@H](CN(C)Cc2ccc(C(F)(F)F)cc2)Oc2c(NS(=O)(=O)c3ccc(Cl)cc3)cccc2C1=O | 4.37% (inactive)
O=C(NC(=O)c1ccccc1)Nc1ccccc1 | -3.17% (inactive)
Cc1cc(Br)ccc1N=C1C(=O)Nc2ccccc21 | -19% (inactive)
O=C1NC(=O)N(CCc2ccc(F)cc2)C(=O)/C1=C/C=C/c1ccccc1 | 0.109% (inactive)
COc1ccc(N=C(NN)c2ccc3ccccc3n2)cc1 | -15.8% (inactive)
Cc1occc1-c1n[nH]c(=S)n1C | 1.91% (inactive)
O=C(COC(=O)c1ccc[nH]c1=O)Nc1ccc(N2CCCCC2)cc1 | 0.213% (inactive)
O=C1C(=O)N(Cc2cccs2)c2ccccc21 | -4.57% (inactive)
Cc1ccc(NC(=O)CCN2CCCCC2)cc1 | 12.4% (inactive)
Cc1ccc(Cl)cc1NC(=O)Cn1cc(C(F)(F)F)cc(Cl)c1=O | 10.1% (inactive)
CN(C)c1ccc(N=Nc2ccc(C(=O)O)cc2)cc1 | 1.5% (inactive)
CCOC(=O)C1CCCCN1C(=O)CCc1c(C)nc2cc(-c3ccccc3)nn2c1C (centres undefined) | -3.12% (inactive)
COC(=O)C[C@@H]1CC[C@@H]2[C@H](COc3ccc(NC(=O)c4cc(F)cc(F)c4)cc3C(=O)N2C)O1 | -0.378% (inactive)

SMILES | activity change, negative = cytotoxicity
COc1cc(/C=N/NS(=O)(=O)c2ccc(C)cc2)ccc1OCc1cccc(C(=O)O)c1 | -3.14% (inactive)
COc1ccc(Cl)cc1S(=O)(=O)Nc1ccc2c(c1)n(C)c(=O)n2C | -1.58% (inactive)
C[C@@H]1CN([C@H](C)CO)C(=O)c2cc(C#CCc3ccccc3)cnc2O[C@@H]1CN(C)Cc1cccc(F)c1 | -13.4% (inactive)
O=C(C[C@@H]1C[C@H]2c3cc(NC(=O)CC4CC4)ccc3O[C@H]2[C@H](CO)O1)NCc1ccccc1F | -23.9% (inactive)
CCc1c(C(=O)NN2C(=O)C3CCCCC3C2=O)csc1C (centres undefined) | -1.99% (inactive)
CCCn1c(C)cc(C(=O)CN2C(=O)c3ccccc3S2(=O)=O)c1C | 11.3% (inactive)
Cc1cc(-c2nc3cc(F)ccc3s2)ccc1N | -13.6% (inactive)
COc1cc(C(c2c(C)[nH][nH]c2=O)c2c(C)[nH][nH]c2=O)ccc1OC(C)C | -4.73% (inactive)
Cc1ccc(Cc2c(-c3ccco3)nc3c(C)cc(Br)cn23)cc1 | 2.77% (inactive)
CC(=O)Nc1ccc(S(=O)(=O)Nc2ccc(N3CCCCC3)cc2)cc1 | -16.3% (inactive)
CC(=O)N1CCCC(c2cc(C(=O)Nc3ccccc3)no2)C1 (centres undefined) | 9.56% (inactive)
C/C=C/c1ccc([C@H]2[C@@H](CO)N3C(=O)CN(S(=O)(=O)c4cccc(F)c4)C[C@@H]23)cc1 | -5.5% (inactive)
Cc1nc2cc(-c3ccc(Cl)cc3)nn2c(C)c1CCC(=O)NC(C)c1ccc2c(c1)OCCO2 (centres undefined) | -6% (inactive)
CCCNC(=O)N1[C@H](C#N)[C@H](c2ccc(C#Cc3ccc(F)cc3)cc2)[C@H]1CO | -13.6% (inactive)
Nc1ccc(-c2cc3ccccc3oc2=O)cc1 | 3.89% (inactive)
COC(=O)c1cccc(NC(=O)NC(=O)c2ccccc2Cl)c1 | -9.77% (inactive)
CCNC(=O)[C@@H]1[C@@H](CO)[C@@H]2Cn3c(ccc(C4=CCCCC4)c3=O)[C@H]1N2CC | -1.43% (inactive)
COc1ccc(-c2sc3ccccc3c2-c2ccc(OCCN3CCCCC3)cc2)cc1 | -3.21% (inactive)
CC(C)CN(C(=O)CN1CCOCC1)c1c(N)n(CC(C)C)c(=O)[nH]c1=O | -1.6% (inactive)
CN(C)[C@@H]1CCC[C@@H]1OC(=O)C(c1ccccc1)c1ccccc1 | -2.99% (inactive)

SMILES | activity change, negative = cytotoxicity
CC1=NC(=O)C(N=Nc2cccc(C(=O)O)c2)N1c1ccccc1 (centres undefined) | -2.93% (inactive)
COc1ccc(/C=C2\SC(=O)N(CCCC(=O)Nc3ccc(C(=O)O)cc3)C2=O)cc1 | -0.477% (inactive)
O=C1Nc2ccccc2C1=Nc1ccc(Br)cc1 | -3.12% (inactive)
N#Cc1cccc(-c2ccc(C3[C@@H]4CN(C(=O)Cc5ccncc5)C[C@H]3N4)cc2)c1 (some centres undefined) | -0.912% (inactive)
Nc1ccc2oc(-c3cc(Br)ccc3Cl)nc2c1 | 2.05% (inactive)
COC(=O)COc1ccc(-c2nccc(-c3ccccn3)n2)cc1 | 11.6% (inactive)
Nc1ncn([C@@H]2O[C@H](CO)[C@@H](O)[C@H]2O)c(=O)n1 | -13.8% (inactive)
CCN(CC)C(=O)CN1C(=O)C(=O)c2ccccc21 | -0.157% (inactive)
CCc1ccc(/C=C2\SC(=S)N(CCCC(=O)Nc3cc(C)on3)C2=O)cc1 | -3.29% (inactive)
CCOC(=O)Cc1ccc(NC(=O)c2ccccc2Br)cc1 | -0.788% (inactive)
O=C1C(=O)N(CCS(=O)(=O)c2ccccc2)c2ccc(Cl)cc21 | -5.89% (inactive)
C[C@H]1CN([C@@H](C)CO)C(=O)c2cc(NS(=O)(=O)c3ccc(Cl)cc3)ccc2O[C@H]1CN(C)Cc1ccc(Cl)c(Cl)c1 | 4.93% (inactive)
Cc1cc(C(=O)NNC(=O)c2ccc(S(=O)(=O)N(C)C)cc2)c(C)o1 | 1% (inactive)
Cc1ccc(/C=C/C(=O)N2CCN(S(=O)(=O)c3c(C)c(C)cc(C)c3C)CC2)o1 | 4.87% (inactive)
COc1ccc(C(=O)OCC(=O)Nc2ccc(Cl)c(C(F)(F)F)c2)c(OC)c1OC | 2.74% (inactive)
O=C(O)c1ccc(N/N=C/c2cc(Br)cs2)cc1 | -5.62% (inactive)
O=C1CCC2S/C(=C/Nc3ccc(C(F)(F)F)cc3)C(=O)N12 (centres undefined) | -2.74% (inactive)
CCCc1cc(=O)oc2c3c(c4c(c12)OC(C)(C)C=C4)OC(C)C(C)C3O (centres undefined) | -3.35% (inactive)
